Patent publication US20200289474A1, “METHODS OF TREATING PAIN WITH A THIAZOLINE ANTI-HYPERALGESIC” (priority 2019, published 2020)

What was measured:
[1] = stability in plasma; type: in vitro ADME; conditions: dog plasma
[2] = test system: peroxynitrite (PN); assay: chemical-based assays of peroxynitrite (PN) oxidation; type: biochemical; conditions: chemical-based assay
[3] = stability in plasma; type: in vitro ADME; conditions: human plasma
[4] = test system: incision-induced hyperalgesia; assay: Brennan protocol, treatment paradigm (established hyperalgesia); type: in vivo, rat
Source text: Two incisional pain models were used to assess Compound 1 effects on hyperalgesia. The first model is referred to as the Brennan model in which, under anesthesia, a 1 cm longitudinal incision to the skin and underlying fascia of a rat hindpaw is made. The second is a variation but is a more invasive procedure in which the skin and muscle are spread apart using forceps which creates a longer-lasting hypersensitivity.
Using the Brennan protocol and a treatment paradigm in rat, Compound 1 (10 and 30 mg/kg PO), morphine (3 mg/kg SC) or vehicle were administered daily at 24 h post-incision, and again at 48 and 72 h post-incision. Mechanical thresholds were obtained at 1 h and 2 h post-dose in all cohorts on all days.

[5] = stability in plasma; type: in vitro ADME; conditions: rat plasma
[6] = rat brain distribution study; type: in vivo
Source text: A rat brain distribution study performed in order to determine standard pharmacokinetic parameters and to assess the brain penetration properties of Compound 1 administered orally and intravenously. […] The compound distributed readily in tissues with a steady-state volume of distribution of 1.7 L/kg.

[7] = test system: MDCKII control cells; assay: cytotoxicity by lactate dehydrogenase (LDH) release; type: cell-based
[8] = dog 7-day repeat dose PO study; type: in vivo; conditions: dog 7 Day PO, N = 1
Procedure: The objective was to develop a preliminary toxicity profile of Compound 1 following daily oral (gavage) administration for 7 days to male and female dogs to support dose selection for a 28-day toxicity study in dogs. Doses were selected based on the results of the MTD phase. Dose levels were 0 (Vehicle Control), 200, 350 and 400 mg/kg (1 dog/sex/group). The vehicle was 0.5% aqueous HPMC.
The animals used in this study were returned to the holding colony

[9] = molecular target: T1, OATP1B1 (Homo sapiens, UniProt Q9Y6L6); assay: transporter inhibition, HEK293 cells, probe accumulation; type: in vitro ADME
T1 construct: expressed in transfected cells; host or cells: HEK293 cells
T1 sequence (Q9Y6L6 1-691): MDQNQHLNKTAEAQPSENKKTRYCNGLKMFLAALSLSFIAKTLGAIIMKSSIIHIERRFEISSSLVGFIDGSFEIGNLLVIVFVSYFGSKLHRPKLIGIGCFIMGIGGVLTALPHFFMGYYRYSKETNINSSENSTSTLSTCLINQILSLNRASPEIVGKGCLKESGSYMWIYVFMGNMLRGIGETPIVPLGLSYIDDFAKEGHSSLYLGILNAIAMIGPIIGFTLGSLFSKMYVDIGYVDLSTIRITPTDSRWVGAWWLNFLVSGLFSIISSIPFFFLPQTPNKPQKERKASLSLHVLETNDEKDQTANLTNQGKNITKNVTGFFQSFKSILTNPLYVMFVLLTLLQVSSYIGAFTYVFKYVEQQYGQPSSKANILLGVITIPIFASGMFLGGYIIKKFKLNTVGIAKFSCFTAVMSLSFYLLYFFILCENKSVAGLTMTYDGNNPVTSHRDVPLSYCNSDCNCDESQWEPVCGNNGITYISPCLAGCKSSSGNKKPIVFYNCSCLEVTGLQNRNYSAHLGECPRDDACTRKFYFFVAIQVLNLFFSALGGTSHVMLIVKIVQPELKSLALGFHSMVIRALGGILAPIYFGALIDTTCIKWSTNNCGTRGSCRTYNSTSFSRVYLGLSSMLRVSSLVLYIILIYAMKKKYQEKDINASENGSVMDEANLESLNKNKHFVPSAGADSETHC

[10] = test system: HEK293 cells; assay: cytotoxicity by lactate dehydrogenase (LDH) release; type: cell-based
[11] = test system: normal sensation; assay: normal sensation in uninjured animals
[12] = test system: incision-induced hyperalgesia; assay: mouse incisional model (mimicking the Brennan protocol); type: in vivo; conditions: 10 mg/kg IP QD, Days 1 and 3 after incision
Procedure: In a mouse incisional model (mimicking the Brennan protocol), animals were baselined for mechanical thresholds prior to incision and then given a daily dose of Compound 1 (10 mg/kg IP QD) or vehicle for 7 days.

[13] = test system: allodynia; assay: methylglyoxal-induced diabetic neuropathy model; type: in vivo; conditions: rat

SMILES: CC1(C)SC(Nc2ccccc2O)=N[C@@H]1C(=O)O.Cl [Compound 1, (R)-2-(2-hydroxyphenylamino)-5,5-dimethyl-4,5-dihydrothiazole-4-carboxylic acid mono-hydrochloride]
- stability in plasma [1]: stable
- PN-mediated oxidation of small-molecule organic substrates such as luminol [2]: inhibits PN-mediated oxidation
- stability in plasma [3]: stable
- reversal of hyperalgesia ([4]; 10 and 30 mg/kg PO, Day 2, 1 h and 2 h post-dosing): full reversal of hyperalgesia
- hyperalgesia ([4]; 10 and 30 mg/kg PO, Day 3 prior to dosing): did not show hyperalgesia
- hyperalgesia ([4]; low- and high-dose, Day 3 after dosing): prevented/reversed hyperalgesia completely
- reversal of hyperalgesia ([4]; low-dose (10 mg/kg PO), Day 1, 2 h post-dose): partial reversal
- stability in plasma [5]: stable
- peak plasma concentration ([6]; rat, in vivo, po, 30 mg/kg): 9 µg/mL
- time to peak plasma concentration ([6]; rat, in vivo, po, 30 mg/kg): ≤ 1 h
- steady-state volume of distribution ([6]; rats): 1.7 L/kg
- oral bioavailability ([6]; rats, 30 mg/kg oral dose): 111%
- terminal half-life ([6]; rats, 30 mg/kg oral dose): 1.6 h
- brain-to-plasma concentration ratio ([6]; rats, 1 h after IV administration): 0.02
- percent cytotoxicity (LDH release) ([7]; 100 μM): 31.3%
- percent cytotoxicity (LDH release) ([7]; 600 μM): 33.6%
- AUC0-last ([8]; Day 1, 200 mg/kg, F): 582 µg·h/mL
- Cmax ([8]; Day 1, 200 mg/kg, F): 152 µg/mL
- t1/2 ([8]; Day 1, 200 mg/kg, F): 1.3 h
- AUC0-last ([8]; Day 1, 200 mg/kg, M): 538 µg·h/mL
- Cmax ([8]; Day 1, 200 mg/kg, M): 150 µg/mL
- t1/2 ([8]; Day 1, 200 mg/kg, M): 1.1 h
- AUC0-last ([8]; Day 1, 350 mg/kg, F): 834 µg·h/mL
- Cmax ([8]; Day 1, 350 mg/kg, F): 228 µg/mL
- t1/2 ([8]; Day 1, 350 mg/kg, F): 1.2 h
- AUC0-last ([8]; Day 1, 350 mg/kg, M): 613 µg·h/mL
- Cmax ([8]; Day 1, 350 mg/kg, M): 176 µg/mL
- t1/2 ([8]; Day 1, 350 mg/kg, M): 1.1 h
- AUC0-last ([8]; Day 1, 400 mg/kg, F): 464 µg·h/mL
- Cmax ([8]; Day 1, 400 mg/kg, F): 109 µg/mL
- t1/2 ([8]; Day 1, 400 mg/kg, F): 3.9 h
- AUC0-last ([8]; Day 1, 400 mg/kg, M): 657 µg·h/mL
- Cmax ([8]; Day 1, 400 mg/kg, M): 167 µg/mL
- t1/2 ([8]; Day 1, 400 mg/kg, M): 1.2 h
- AUC0-last ([8]; Day 7, 200 mg/kg, F): 411 µg·h/mL
- Cmax ([8]; Day 7, 200 mg/kg, F): 103 µg/mL
- t1/2 ([8]; Day 7, 200 mg/kg, F): 1.5 h
- AUC0-last ([8]; Day 7, 200 mg/kg, M): 540 µg·h/mL
- Cmax ([8]; Day 7, 200 mg/kg, M): 121 µg/mL
- t1/2 ([8]; Day 7, 200 mg/kg, M): 1.4 h
- AUC0-last ([8]; Day 7, 350 mg/kg, F): 738 µg·h/mL
- Cmax ([8]; Day 7, 350 mg/kg, F): 207 µg/mL
- t1/2 ([8]; Day 7, 350 mg/kg, F): 2.4 h
- tmax ([8]; Day 7, 350 mg/kg, F): 0.5 h
- AUC0-last ([8]; Day 7, 350 mg/kg, M): 591 µg·h/mL
- Cmax ([8]; Day 7, 350 mg/kg, M): 184 µg/mL
- t1/2 ([8]; Day 7, 350 mg/kg, M): 1.2 h
- AUC0-last ([8]; Day 7, 400 mg/kg, F): 751 µg·h/mL
- Cmax ([8]; Day 7, 400 mg/kg, F): 183 µg/mL
- t1/2 ([8]; Day 7, 400 mg/kg, F): 2.5 h
- AUC0-last ([8]; Day 7, 400 mg/kg, M): 210 µg·h/mL
- Cmax ([8]; Day 7, 400 mg/kg, M): 69 µg/mL
- t1/2 ([8]; Day 7, 400 mg/kg, M): 1.3 h
- inhibition [9]: does not inhibit
- cytotoxicity (LDH release) [10]: less than 25%
- effect on normal sensation [11]: does not alter normal sensation
- hyperalgesia (mechanical thresholds) [12]: not hyperalgesic
- effect on allodynia, methylglyoxal-induced diabetic neuropathy [13]: alleviates allodynia
